Laboratory results taken from patent US9487474B2, “Imino compounds as protecting agents against ultraviolet radiations” (Elkimia, Inc., priority 2012, dated 2016).

Tests used:
Assay type in all cases: physicochemical
[1] = UV spectrum (λmax) of the isolated compound
Excerpt: In other embodiments, the present invention provides methods and techniques for determining the UV-absorbing capacity of the compounds as defined herein. The UV-absorbing properties of the compounds defined herein can be determined by spectrophotometer according to techniques and methods well known in the art. For example, ultraviolet-visible spectroscopy or ultraviolet-visible spectrophotometry (UV-Vis or UV/Vis) may be used to calculate the wavelength of maximal absorption (λmax) of the compound.

[2] = In vitro UV protection performance (SPF in vitro, UVAPF, Critical Wavelength) by the Colipa UVA in vitro Method on PMMA plates; details: for Critical Wavelength λc value: PMMA plate, after UV exposure, 90% of the absorbance integral 290 to 400 nm, >= 370 nm = broad-spectrum; for protection against UVA rays (UVAPF in vitro), in words: UVAPF in vitro measurements; for UVAPF: thin film 0.75 mg/cm^2 on PMMA plate, after UV irradiation (pre-irradiation 800 J/m^2-eff); for SPF in vitro: thin film 0.75 mg/cm^2 on roughened PMMA plate, absorbance before UV exposure
Protocol: The following compounds were evaluated by an in vitro study for the Sun Protection Factor (SPF) in vitro, the UVA Protection Factor (UVAPF) and the Critical Wavelength value using the Colipa UVA in vitro Method.
For determining the SPF in vitro value, the protection performance of the compounds against erythemally-effective UV radiation, largely confined to the UVB (290-320 nm) and short-wavelength UVA (320-340) region was calculated from the measured in vitro transmittance. The in vitro UVAPF, the UVA protection (320-400 nm) was calculated from the measured in vitro transmittance after irradiation. The Critical Wavelength Value was defined as the wavelength at which the integral of the spectral absorbance curve reached 90% of the integral over the UV spectrum from 290 to 400 nm. It has been settled that this value must be equal or over 370 nm so as to classify the product as broad-spectrum. The study consisted in a comparative assay of non-treated plates against plates treated with each of the compounds and was based on the evaluation of UV-transmittance through a thin film of sunscreen sample spread on a roughened substrate, before an after exposure to a controlled dose of UV radiation from a UV source. A Kontron 933 spectrophotomer equipped with a UV source, an integrating sphere and a monochromatic light able to deliver a flow of energy between 290 and 400 nm was used. The transmittance values were measured at 1 nm intervals. A 10-4 precision laboratory balance was used to control deposited product weight. The irradiation was provided by Sunset Atlas CPS+ with standard filter. Temperature regulation of the equipment was done in the range of 25-35° C. A pre-irradiation dose of 4 times 200 J/m^2-eff (800 J/m^2-eff) was delivered. The substrate was the material to which the sunscreen product was applied. Polymethylmethacrylate (PMMA) plates were used and were roughened on one side to a three-dimensional surface topography of 5 micrometers. Each compound was weighted and applied evenly to the PMMA plate with a 2-phase spreading to achieve a 0.75 mg/cm^2 weight/surface ratio. Spreading was performed with a light spreading move for approximately 30 seconds followed by spreading with greater pressure for approximately 30 seconds. The resulting sample was left to equilibrate for 15 minutes in the dark at room temperature to ensure a self-leveling if the formula. To account for lack of photostability, a pre-irradiation was necessary. The pre-irradiation dose was 4 minimal erythema dose (MEDs), equivalent to 800 J/m^2-eff. Five measurements of spectral irradiance transmitted for each wavelength through the PMMA plate covered with the sunscreen product were obtained after pre-irradiation of the sunscreen product [P1( ), P2( ), P3( ), P4( ) and P5( )]. For each compound, mean absorbance values were determined from at least three individual PMMA plates. To validate the accuracy of the results, a control product with an established SPF of 18-20, Lot 11T0313 was tested simultaneously with the compounds. SPF in vitro was calculated for each plate using the following equation (Colipa 2011):
[formula] Where: • E( )=Erythema action spectrum (CEI-1987) • I( )=Spectral irradiance of the UV source • A0( )=Mean monochromatic absorbance measurements per plate of the test compound layer before UV exposure, at each wavelength • d=Wavelength step (1 nm) Calculation of the UVAPF for Each Plate after UV Irradiation (Colipa 2011)
[formula] Where: • P( )=PPD action spectrum • I( )=Spectral irradiance of the UV source • A( )=Mean monochromatic absorbance measurements per plate of the test compound layer after UV exposure, at each wavelength • C=Coefficient of adjustment • d=Wavelength step (1 nm) Calculation of the Critical Wavelength (FDA 2011)
[formula] Where: • A( )=Mean monochromatic absorbance measurements per plate of the compound layer after UV exposure, at each wavelength • d=Wavelength step (1 nm) […]

[3] = UVA/UVB absorption of compound films on glass slides, with and without 20 hours ageing under UV (Xenon instrument); details: for Tested compound UVA % / Tested compound UVB %: absorption A = (Tslide−Tslide+sample)/Tslide×100; for Plate + tested compound UVA % / Plate + tested compound UVB %: transmission T (%)
Protocol: Compounds IE1, IF1, IA2, IE4, IA1, IE2, ID2 and ID3 were evaluated for their UV absorption properties. Samples were prepared as follows: 20 mg of each of the compounds were dissolved into 1 ml of methanol to yield 20 g/L solutions. The solutions were then applied onto two glass slides each. For each compound, one of the slides was aged for 20 hours under UV (Xenon instrument). Samples were then analyzed using a UVA-UVB spectrophotometer in transmission T (%) mode and compared to the non-aged slides. Absorption (A) was calculated using the following formula: Asample=(Tslide−Tslide+sample)/Tslide×100

[4] = 20 g/L methanol solution on glass slide, no ageing
[5] = ageing for 20 hours under UV (Xenon instrument)

SMILES	UV: λmax ([1]; MeOH/water with both 0.1% formic acid) [nm]	UV: λmax ([1]; MeOH/water) [nm]	Critical Wavelength λc value [2] [nm]	protection against UVA rays (UVAPF in vitro), in words [2]	UVAPF [2]	SPF in vitro [2]	Tested compound UVA % ([3]; ageing for 20 hours under UV) [%]	Tested compound UVB % ([3]; ageing for 20 hours under UV) [%]	Tested compound UVA % ([3]; no ageing) [%]	Tested compound UVB % ([3]; no ageing) [%]	Plate + tested compound UVA % [3, 4] [%]	Plate + tested compound UVB % [3, 4] [%]	Plate + tested compound UVA % [3, 5] [%]	Plate + tested compound UVB % [3, 5] [%]
COc1ccc(/N=C2/C=C(NCC(=O)O)CCC2)cc1 [(E)-2-((3-((4-methoxyphenyl)imino)cyclohex-1-en-1-yl)amino)acetic acid]	~318													
COc1ccc(/N=C2/C=C(Nc3ccc(OC)cc3)CC(C)(C)C2)cc1 [(E)-N,N′-(5,5-dimethylcyclohex-1-ene-1-yl-3-ylidene)bis(4-methoxyaniline)]		~345												
COc1ccc(/N=C2\CC(C)(C)CC3=C2SCC(C(=O)O)N3)cc1 (stereo not shown) [IA1]			390	good protection against UVA rays	8.7	2.4	95.1	98.6	98.9	95.8	0.99	1.88	4.33	0.64
COc1ccc(/N=C2/C=C(NCC(=O)O)CC(C)(C)C2)cc1 [ID2]							98.9	99.0	99.5	99.2	0.44	0.34	1.00	0.46
COc1ccc(/N=C2/C=C(NCC(=O)O)CCC2)cc1 [ID3]							98.6	98.6	99.5	99.3	0.47	0.33	1.28	0.62

Now from value to compound:

UV: λmax ([1]; MeOH/water with both 0.1% formic acid) [nm]	UV: λmax ([1]; MeOH/water) [nm]	Critical Wavelength λc value [2] [nm]	protection against UVA rays (UVAPF in vitro), in words [2]	UVAPF [2]	SPF in vitro [2]	Tested compound UVA % ([3]; ageing for 20 hours under UV) [%]	Tested compound UVB % ([3]; ageing for 20 hours under UV) [%]	Tested compound UVA % ([3]; no ageing) [%]	Tested compound UVB % ([3]; no ageing) [%]	Plate + tested compound UVA % [3, 4] [%]	Plate + tested compound UVB % [3, 4] [%]	Plate + tested compound UVA % [3, 5] [%]	Plate + tested compound UVB % [3, 5] [%]	SMILES
		391	good protection against UVA rays	13.5	3.4	98.2	97.7	98.9	98.4	1.00	0.73	1.63	1.02	CC1(C)CC2=C(SCC(C(=O)O)N2)/C(=N/c2ccc(C(=O)NC(C)(C)C)cc2)C1 (stereo not shown) [IE1]
						95.0	95.6	96.1	95.3	3.51	2.12	4.43	1.97	CC1(C)CC2=C(SCC(C(=O)O)N2)/C(=N/c2ccccc2)C1 (stereo not shown) [IE2, (E)-6,6-dimethyl-8-(phenylimino)-3,4,5,6,7,8-hexahydro-2H-benzo[b][1,4]thiazine-3-carboxylic acid]
		390	good protection against UVA rays	8.6	4.5	98.4	98.2	99.5	99.0	0.49	0.46	1.46	0.81	CC1(C)CC2=C(SCC(C(=O)O)N2)/C(=N/c2ccc(F)cc2)C1 (stereo not shown) [IE4]
		390		4.1	2.1	99.6	99.1	99.7	99.3	0.24	0.31	0.37	0.39	COc1ccc(/N=C2\CC(C)(C)CC3=C2SCC(C(=O)O)N3)cc1OC (stereo not shown) [IF1]
